In assay [1] the target is T1, gastric histamine H2 receptors (Rattus norvegicus, UniProt P25102).
T1 construct: the gastric secretion is measured by perfusion of a physiological solution at a constant speed in the stomach of the animal; from tissue; host or cells: stomach of the living atropinised rat (in vivo, endogenous receptor)
The assay is described as follows: antisecretory activity: antagonism of gastric hypersecretion induced by histamine in the atropinised rat (Ghosh and Schild modified according to Black). The assay is classed as in vivo. The following applies: for ED50: intravenous, single administration, histamine i.v. infusion 15 mcmol/kg/hour, atropinised rat, read-out: ID50 (dose which inhibits by 50% the gastric hypersecretion induced by histamine). As for the experimental part:
According to this test, a gastric acid hypersecretion is induced by intravenous infusion of a sub-maximal dose of histamine equivalent to 15 mcmol/kg/hour and the gastric secretion is measured by perfusion of a physiological solution at a constant speed in the stomach of the animal.
Cimetidine and ranitidine, which represent standard compounds, as well as:
the compound of formula [drawing 5] as oxalate, and […]

Assay [2] has as its system histamine H2 receptors. As to conditions: i.v.; cited from earlier work.
The mark [3] stands for this setting: from ID50, i.v., cimetidine = 1.

T1 sequence (P25102 whole entry, the tested form may be a part): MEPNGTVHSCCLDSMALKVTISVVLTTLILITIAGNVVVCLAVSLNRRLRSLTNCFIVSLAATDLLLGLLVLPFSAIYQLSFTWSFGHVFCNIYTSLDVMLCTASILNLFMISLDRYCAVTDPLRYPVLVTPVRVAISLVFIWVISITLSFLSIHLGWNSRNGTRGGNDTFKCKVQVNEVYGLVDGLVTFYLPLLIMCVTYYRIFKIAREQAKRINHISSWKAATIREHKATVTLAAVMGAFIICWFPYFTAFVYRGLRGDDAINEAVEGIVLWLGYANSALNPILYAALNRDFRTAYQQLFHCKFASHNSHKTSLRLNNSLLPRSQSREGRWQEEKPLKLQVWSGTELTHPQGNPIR

In the case of `O=CNCCCOc1cccc(CN2CCCC2)c1` [Compound IV, reference compound], the “Relative potency (cimetidine = 1)” value in assay [1] (setting [3]) was 0.47. For the same molecule, the ED50 in assay [1] was 2.01 µmol/kg; in assay [2], 0.84 mg/kg.
For the molecule `O=C(NCCCOc1cccc(CN2CCCCC2)c1)c1ccc[n+]([O-])c1` [SR 58017A, N-[3-(3-piperidinomethylphenoxy)propyl]-3-pyridinecarboxamide 1-oxide sesquioxalate], in assay [1] (setting [3]), the “Relative potency (cimetidine = 1)” value was 8.64. Moreover, the ED50 in assay [1] worked out at 0.11 µmol/kg.
Regarding `O=C(NCCCOc1cccc(CN2CCCC2)c1)c1cccnc1` [Compound V, reference compound], in assay [1] (setting [3]), the “Relative potency (cimetidine = 1)” value is recorded as 0.43. Moreover, the ED50 was 2.22 µmol/kg in assay [1] and 1.25 mg/kg in assay [2].
With `O=C(NCCCOc1cc(CN2CCCCC2)ccn1)c1ccc[n+]([O-])c1` [SR 58065, N-[3-(4-piperidinomethylpyrid-2-yloxy)propyl]3-pyridinecarboxamide 1-oxide], the “Relative potency (cimetidine = 1)” value in assay [1] (setting [3]) is 1.48. Also, in assay [1], the ED50 turned out to be 0.64 µmol/kg.
For `O=C(NCCCOc1cccc(CN2CCCC2)c1)c1ccc[n+]([O-])c1` [CM 57891, N-[3-(3-pyrrolidinomethylphenoxy)propyl]-3-pyridinecarboxamide 1-oxide] the same measures were 2.43 and 0.39 µmol/kg.
For `CC1CCN(Cc2cccc(OCCCNC(=O)c3ccc[n+]([O-])c3)c2)CC1` [SR 58037, N-[3-[3-(4-methylpiperidinomethyl)phenoxy]propyl]-3-pyridinecarboxamide 1-oxide] the same measures were 7.31 and 0.13 µmol/kg.
Turning to `CNC(=C[N+](=O)[O-])NCCSCc1ccc(CN(C)C)o1` [Ranitidine, N-[2-[[5-[(dimethylamino)methyl]furfuryl]thio]ethyl]-N'-methyl-2-nitro-1,1-ethenediamine, reference compound], in assay [1] (rat, in vivo, iv), the “Relative potency (cimetidine = 1)” value turned out to be 3.80.
Regarding `O=C(NCCCOc1cccc(CN2CCC(O)CC2)c1)c1ccc[n+]([O-])c1` [SR 58067, N-[3-[3-(4-hydroxypiperidinomethyl)phenoxy]propyl]-3-pyridinecarboxamide 1-oxide], the “Relative potency (cimetidine = 1)” value in assay [1] (setting [3]) worked out at 1.34. In addition, in assay [1], the ED50 stood at 0.71 µmol/kg.
In the case of `CCCCN(CCCC)Cc1cccc(OCCCNC(=O)c2ccc[n+]([O-])c2)c1` [SR 58062, N-[3-(3-di-n-butylaminomethylphenoxy)propyl]-3-pyridinecarboxamide 1-oxide], in assay [1] (setting [3]), the “Relative potency (cimetidine = 1)” value came to 1.19. Moreover, in assay [1], the ED50 turned out to be 0.8 µmol/kg.
As for `O=C(NCCCOc1cccc(CN2CCCCCC2)c1)c1ccc[n+]([O-])c1` [SR 58052, N-[3-(3-hexamethyleneiminomethylphenoxy)propyl]-3-pyridinecarboxamide 1-oxide], the “Relative potency (cimetidine = 1)” value in assay [1] (setting [3]) came to 3.80. Also, the ED50 in assay [1] is 0.25 µmol/kg.
For `CC1CCCN(Cc2cccc(OCCCNC(=O)c3ccc[n+]([O-])c3)c2)C1` (centres unmarked) [SR 58042, N-[3-[3-(3-methylpiperidinomethyl)phenoxy]propyl]-3-pyridinecarboxamide1-oxide] the same measures were 6.78 and 0.14 µmol/kg.
